This note sets out measurements from patent publication US20230148418A1, “TYROSINASE ANTISENSE OLIGONUCLEOTIDES” (OLIPASS CORPORATION, priority 2017, published 2023).

Holding throughout (type): cell-based
For data set [1], the system named is human TYR mRNA. The experiment in a line: Nested qPCR for TYR mRNA in human primary epidermal melanocytes. The following applies: 1 zM to 10 aM, 5 hours, significant at 1 zM and 10 aM. The method, then: “ASO 1” was evaluated by TYR nested qPCR for its ability to induce changes in the TYR mRNA level in human primary epidermal melanocytes as follows.
[Cell Culture & ASO Treatment] Primary epidermal melanocytes (Cat. Number PCS-200-013, ATCC) cells were maintained in Dermal Cell Basal Medium (Cat Number PCS-200-030, ATCC) supplemented with Adult Melanocyte Growth Kit Component (Cat. Number PCS-200-042, ATCC). Melanocytes grown in 60 mm culture dish containing 5 mL culture medium were treated with “ASO 1” at 0 zM (negative control), 1 zM, 100 zM, or 10 aM. (3 culture dishes per concentration)
[RNA Extraction & cDNA Synthesis by One-step PCR] Following an incubation with “ASO 1” for 5 hours, total RNA was extracted using “RNeasy Mini Kit” (Cat. Number 74106, Qiagen) according to the manufacturer's instructions. 200 ng of RNA template was subjected to a 25 μL reverse transcription reaction using Super Script® One-Step RT-PCR kit with Platinum® Taq polymerase (Cat. No. 10928-042, Invitrogen) against a set of exon-specific primers of [exon 1_forward(2): (5′→3′) CTCTTTGTCTGGATGCATT; and exon 5_reverse: (5′→3′) CTGTGGTAATCCTCTTTCT] according to the following cycle conditions specified: 50° C., for 30 min and 94° C. for 2 min, which was followed by 15 cycles of 30 sec at 94° C., 30 sec at 50° C., and 1 min at 72° C.
(§1) [Nested PCR Amplification] […]
Background: Quantitative PCR measures a nucleic acid by following its amplification.

The subject of data set [2] is TYR protein. The experiment in a line: TYR protein expression by western blot in B16F10 mouse melanoma cells. The settings on record: 10 zM to 10 aM, 24 hours. The method, then:
“ASO 1M” was evaluated for its ability to down-regulate the TYR protein expression in B16F10 mouse melanoma cells as described below.
B16F10 cells grown in 60 mm culture dish containing 5 mL DMEM were treated with “ASO 1M” at 0 zM (negative control), 10 zM, 100 zM, 1 aM or 10 aM. 24 hours later, cells were washed 2 times with cold PBS (phosphate buffered saline), and then subjected to lysis with 200 μl 1× cell lysis butler (Cat. No. 9803, Cell Signaling Tech) supplemented with 1× protease inhibitors cocktail (Cat. No. P8340, Sigma). 200 μl of each lysate in 1.5 mL e-tube was mixed with […] 5× sample buffer, and boiled at 100° C. for 5 min. 20 μl of the lysate was subjected to electrophoretic separation on a 4-15% gradient TGX gel (Cat No. 456-1086, Bio-Rad), and protein transfer on a 0.45 μm PVDF membrane. The membrane was probed with an anti-TYR antibody (Cat. No. 9319, Cell Signaling Tech) and anti-β-actin antibody (Cat. No. a3845, Sigma).

Data set [3] has as its system mouse TYR mRNA. The experiment in a line: Nested qPCR for TYR mRNA in B16F10 mouse melanoma cells. The following applies: 1 to 1,000 aM, 5 hours, normalized to no treatment, significant. The method, then:
“ASO 1M” was evaluated by TYR nested qPCR for its ability to induce changes in the mouse TYR mRNA level in B16F10 cells as described below.
[Cell Culture & ASO Treatment] B16F10 cells grown in 60 mm culture dish containing 5 mL DMEM were treated with “ASO 1M” at 0 (negative control), 1, 10,100 or 1000 aM. (2 culture dishes per dose)
[RNA Extraction & cDNA Synthesis by One-step PCR] Following an incubation with “ASO 1M” for 5 hours, total RNA was extracted from cells using “Universal RNA Extraction Kit” (Cat. No. 9767, Takara) according to the manufacturer's instructions. 200 ng of RNA template were used for a 25 μl reverse transcription reaction using One Step RT-PCR kit (Invitrogen, USA) against a set of exon specific primers of [exon 1_forward: (5′→3′) GTAAGTTTGGATTTGGGG; and exon 4_reverse: (5′→3′) AGAGCGGTATGAAAGGAA] according to the following cycle conditions: 50° C. for 30 min and 94° C. for 2 min, followed by 15 cycles of 30 sec at 94° C., 30 sec at 52° C., and 40 sec at. 72° C.
[Nested qPCR Amplification] The cDNA solutions were diluted by 100 times, and 1 μl of each diluted PCR product was subjected to a 20 μl Real-Time PCR reaction with a Taqman probe set spanning the junction of exon 2 and exon 3 (Cat. No. Mm00495818_m1, Thermo Fisher Scientific) according to the following cycle conditions: 95° C. for 3 min followed by 30 cycles 10 sec at 95° C., and 30 sec at 60° C. […]

In data set [4] the test system is mouse TYR pre-mRNA. The experiment in a line: Exon skipping by nested PCR in B16F10 mouse melanoma cells. The settings on record: 1 to 1,000 aM, 5 hours, untreated cells gave full-length and exons 2-3 skipped bands. The method, then: [Cell Culture & ASO Treatment] B16F10 mouse melanoma cells (Cat. Number CRL-6475, ATCC) were maintained in DMEM (Dulbecco's modified Eagle's essential minimum medium) supplemented with 10% FBS, 1% streptomycin/penicillin, and 0.01 mg/ml bovine insulin. B16F10 cells grown in 60 mm culture dish containing 5 mL DMEM were incubated for 5 hours with “ASO 1M” at 0 (negative control), 1, 10,100 or 1000 aM.
[RNA Extraction & cDNA Synthesis by One-step PCR] Following an incubation for 5 hours, total RNA was extracted using “Universal RNA Extraction Kit” (Cat. Number 9767, Takara) according to the manufacturer's instructions. 200 ng of RNA template was used for a 25 μl reverse transcription reaction using Super Script® One-Step RT-PCR kit with Platinum® Taq polymerase (Cat. No. 10928-042, Invitrogen) against a set of exon-specific primers of [exon1_forward: (5′→3′) GTAAGTTTGGATTTGGGG; and exon 4_reverse: (5′→3′) AGAGC-GGTATGAAAGGAA] according to the following cycle conditions: 50° C. for 30 min and 94° C. for 2 min, followed by 15 cycles of 30 sec at 94° C. 30 sec at 52° C. and 40 sec at 72° C.
as §1
[Identification of Exon Skipping Products] […] The hands of target size were collected and analyzed by Sanger Sequencing.

[C(1O2)] = PNA monomer with modified cytosine nucleobase C(1O2); [A(5)] = PNA monomer with modified adenine nucleobase A(5); [G(6)] = PNA monomer with modified guanine nucleobase G(6); {Fethoc} = Fethoc N-terminal cap of the PNA; {NH2} = C-terminal amide of the PNA

Consider “Fathoc-CA(5)G-ACA(5)-ATC(1O2)-TG(6)T-A(5)-NH2 (CAGACAATCTGTA; all peptide nucleic acid (PNA), [A(5)] at 2, 6, 13, [C(1O2)] at 9, [G(6)] at 11, 5' {Fethoc}, 3' {NH2}; further chemistry not given here) [ASO 1, 13-mer PNA derivative targeting the 3′ splice site of exon 2 in the human TYR pre-mRNA]”, for which the “Decrease of full-length TYR mRNA level” value in data set [1] is recorded as roughly 30%.
As to “Fethoc-CA(5)A-A(5)TG-A(5)TC(1O2)-TG(6)T-G-NH2 (CAAATGATCTGTG; all peptide nucleic acid (PNA), [A(5)] at 2, 4, 7, [C(1O2)] at 9, [G(6)] at 11, 5' {Fethoc}, 3' {NH2}; further chemistry not given here) [ASO 1M, 13-mer PNA derivative targeting the 3′ splice site of exon 2 in the mouse TYR pre-mRNA; surrogate for ASO 1]”, the “Band intensity of TYR expression versus negative control” value in data set [2] is recorded as “considerably weaker”. The “Decrease of full-length TYR mRNA level” value in data set [3] is given as roughly 40%. Moreover, the “Exon skipping: PCR products by electrophoresis” value in data set [4] was “yielded only the splice variant TYR mRNA lacking exons 2 and 3”.
